According to US7851497B2 (priority 2004, dated 2010):
Counter-ions that a name gives are not always drawn. Like-named read-outs stand apart in the source and are kept apart here.

Tests used:
Format in all cases: in vivo
cucumber downy mildew [1] = assay: Test on curative effect against cucumber downy mildew
Protocol: Cucumber (cultivar: Suyo) was cultivated in a polyethylene pot having a diameter of 7.5 cm, and when it reached two-leaf stage, the cucumber was sprayed and inoculated with a suspension of spores of cucumber downy mildew and kept in a humidified chamber at 20° C. for 4 hours. Then, after drying the crop plant, a drug solution having the respective test compounds adjusted to the predetermined concentrations, was applied in a sufficient amount (20 ml) by means of a spray gun. After the sprayed solution dried, it was kept in a thermostatic chamber at 20° C. for 7 days, whereupon the lesion area ratio in the first leaf was investigated, and the control value was obtained by the following formula. Here, the test was carried out in double series.
(§1) The lesion area in non-treated area was obtained in the same manner as in the treated area except that instead of the drug solution, water was applied by means of a spray gun. Control value=(b−a)/b×100 where a is the lesion area ratio in treated area, and b is the lesion area ratio in non-treated area.
(§2) Further, a theoretical value can be calculated by the Colby formula. If the experimental value is higher than the theoretical value by the Colby formula, the fungicidal composition for agricultural or horticultural use of the present invention has a synergistic effect for controlling the plant disease. In this context, the theoretical values by the Colby formula are also shown in brackets ( ) in Table 2.

tomato late blight = tested on: tomato late blight
cucumber downy mildew [2] = assay: Test on preventive effect against cucumber downy mildew
Protocol: Cucumber (cultivar: Suyo) was cultivated in a polyethylene pot having a diameter of 7.5 cm, and when the cucumber reached two-leaf stage, a drug solution having the respective test compounds adjusted to the predetermined concentrations, was applied in a sufficient amount (20 ml) by means of a spray gun. After the applied solution dried, the cucumber was sprayed and inoculated with a suspension of spores of cucumber downy mildew and kept in a humidified chamber at 20° C. for 4 hours. Thereafter, the cucumber was kept in a thermostatic chamber at 20° C. for 7 days, whereupon the lesion area ratio in the first leaf was investigated, and the control value was obtained by the following formula. Here, the test was carried out in double series.
as §1, with “lesion area ratio in non-treated” for “lesion area in non-treated”
as §2, with “1.” for “2.”

[3] = propamocarb hydrochloride 1000 ppm alone (Compound No. 1 0 ppm)
[4] = propamocarb hydrochloride 2000 ppm alone (Compound No. 1 0 ppm)
[5] = propamocarb hydrochloride 4000 ppm alone (Compound No. 1 0 ppm)

Row | SMILES | Control value in the test on curative effect against cucumber downy mildew (cucumber downy mildew [1]; Compound No. 1 125 ppm alone (propamocarb hydrochloride 0 ppm)) | Control value in the test on curative effect against cucumber downy mildew (cucumber downy mildew [1]; Compound No. 1 500 ppm alone (propamocarb hydrochloride 0 ppm)) | Control value in the test on preventive effect against tomato late blight (tomato late blight; Compound No. 1 0.5 ppm alone (propamocarb hydrochloride 0 ppm)) | Control value in the test on preventive effect against cucumber downy mildew (cucumber downy mildew [2]; Compound No. 1 0.03 ppm alone (propamocarb hydrochloride 0 ppm)) | Control value in the test on preventive effect against cucumber downy mildew (cucumber downy mildew [2]; Compound No. 1 0.13 ppm alone (propamocarb hydrochloride 0 ppm)) | Control value in the test on curative effect against cucumber downy mildew (cucumber downy mildew [1]; [3]) | Control value in the test on curative effect against cucumber downy mildew (cucumber downy mildew [1]; [4]) | Control value in the test on curative effect against cucumber downy mildew (cucumber downy mildew [1]; [5]) | Control value in the test on preventive effect against tomato late blight (tomato late blight; [3]) | Control value in the test on preventive effect against tomato late blight (tomato late blight; [4]) | Control value in the test on preventive effect against tomato late blight (tomato late blight; [5]) | Control value in the test on preventive effect against cucumber downy mildew (cucumber downy mildew [2]; [3]) | Control value in the test on preventive effect against cucumber downy mildew (cucumber downy mildew [2]; [4]) | Control value in the test on preventive effect against cucumber downy mildew (cucumber downy mildew [2]; [5])
1 | Cc1ccc(-c2c(Cl)nc(C#N)n2S(=O)(=O)N(C)C)cc1 [Compound No. 1, 4-Chloro-2-cyano-1-dimethylsulfamoyl-5-(4-methylphenyl)imidazole] | 0 | 90 | 67 | 0 | 90 |  |  |  |  |  |  |  |  | 
2 | CCCOC(=O)NCCCN(C)C [propamocarb hydrochloride] |  |  |  |  |  | 10 | 20 | 30 | 0 | 0 | 0 | 0 | 10 | 30
